Source: patent publication US20240382494A1, “THERAPEUTIC COMPOUNDS” (priority 2023, published 2024)

Target: SARS-CoV-2 PLpro (Severe acute respiratory syndrome coronavirus 2, UniProt P0DTD1)
Assay: FRET-based PLpro enzymatic assay
Assay type: biochemical
Conditions: 200 nM PLpro, 10 μM FRET substrate, 30 min preincubation at 30° C.; read-out: IC50
Procedure: The SARS-CoV-2 PL^pro enzymatic assays were carried out as follows. The assay was assembled in 96-well plates with 100 μl of 200 nM PL^Pro protein in PL^Pro reaction buffer [50 mM Hepes (pH 7.5), 0.01% Triton X-100, and 5 mM DTT]. Then, 1 μl of testing compound at various concentrations was added to each well and incubated at 30° C. for 30 minutes. The enzymatic reaction was initiated by adding 1 μl of 1 mM FRET substrate (the final substrate concentration is 10 μM). The reaction was monitored in a Cytation 5 image reader with filters for excitation at 360/40 nm and emission at 460/40 nm at 30° C. for 1 hour. The initial velocity of the enzymatic reaction with and without testing compounds was calculated by linear regression for the first 15 minutes of the kinetic progress curve. The IC50 values were calculated by plotting the initial velocity against various concentrations of testing compounds with a dose-response function in Prism 8 software.

**Q.** How did the IC50 turn out when `CCn1ccc(-c2cc([C@@H](C)NC(=O)c3cc(OC[C@@H]4CCN4C)ccc3C)c3ccccc3n2)n1` [Example 105, N—((R)-1-(2-(1-ethyl-1H-pyrazol-3-yl)quinolin-4-yl)ethyl)-2-methyl-5-(((S)-1-methyl-azetidin-2-yl)methoxy)benzamide] was run?
**A.** < 500 nM

**Q.** How did the IC50 turn out when `COc1ncc(-c2cc([C@@H](C)NC(=O)c3cc(OCCN(C)C)ccc3C)c3ccccc3n2)cn1` [Example 62, (R)-5-(2-(dimethylamino)ethoxy)-N-(1-(2-(2-methoxy-pyrimidin-5-yl)quinolin-4-yl)ethyl)-2-methylbenzamide] was run?
**A.** > 5000 nM

**Q.** With `Cc1ccc(N2C[C@H]3CN(C)C[C@H]3C2)cc1C(=O)N[C@H](C)c1cc(-c2cnn(C)c2)nc2ccccc12` [Example 81, 2-methyl-N—((R)-1-(2-(1-methyl-1H-pyrazol-4-yl)quinolin-4-yl)ethyl)-5-((3aR,6aS)-5-methylhexahydropyrrolo[3,4-c]pyrrol-2(1H)-yl)benzamide] as the compound, how does the IC50 read?
**A.** < 500 nM

**Q.** With `Cc1ccc(OCCN(C)C)cc1C(=O)N[C@H](C)c1cc(-c2cnn(C)c2)nc2ccccc12` [Example 7, (R)-5-(2-(dimethylamino)ethoxy)-2-methyl-N-(1-(2-(1-methyl-1H-pyrazol-4-yl)quinolin-4-yl)ethyl)benzamide] as the compound, how does the IC50 read?
**A.** < 500 nM

**Q.** With `Cc1ccc(OC[C@H]2CCCN2C)cc1C(=O)N[C@H](C)c1cc(-c2cnn(C)c2)nc2ccccc12` [Example 83, 2-methyl-N—((R)-1-(2-(1-methyl-1H-pyrazol-4-yl)quinolin-4-yl)ethyl)-5-(((R)-1-methylpyrrolidin-2-yl)methoxy)benzamide] as the compound, how does the IC50 read?
**A.** < 500 nM

**Q.** For `Cc1ccc(OCCN(C)C)cc1C(=O)N[C@@H](C)c1cc(-c2ccco2)nc2ccccc12` [Example 17, (S)-5-(2-(dimethylamino)ethoxy)-N-(1-(2-(furan-2-yl)quinolin-4-yl)ethyl)-2-methylbenzamide], which IC50 is on record?
**A.** < 500 nM

**Q.** How did the IC50 turn out when `Cc1ccc(OC[C@@H]2CCN2C)cc1C(=O)N[C@H](C)c1cc(-c2cnn(C)c2)nc2ccccc12` [Example 75, 2-methyl-N—((R)-1-(2-(1-methyl-1H-pyrazol-4-yl)quinolin-4-yl)ethyl)-5-(((S)-1-methylazetidin-2-yl)methoxy)benzamide] was run?
**A.** < 500 nM

**Q.** With `Cc1ccc(OCCN(C)C)cc1C(=O)N[C@H](C)c1cc(-n2ccnc2)nc2ccccc12` [Example 46, (R)—N-(1-(2-(1H-imidazol-1-yl)quinolin-4-yl)ethyl)-5-(2-(dimethylamino)ethoxy)-2-methylbenzamide] as the compound, how does the IC50 read?
**A.** < 500 nM

**Q.** `Cc1ccc(N2CCN(C)[C@H](C)C2)cc1C(=O)N[C@H](C)c1cc(-c2cnn(C)c2)nc2ccccc12` [Example 79, 5-((R)-3,4-dimethylpiperazin-1-yl)-2-methyl-N—((R)-1-(2-(1-methyl-1H-pyrazol-4-yl)quinolin-4-yl)ethyl)benzamide] was tested. Which IC50 did it give?
**A.** < 500 nM

**Q.** With `Cc1ccc(OCCN(C)C)cc1C(=O)N[C@H](C)c1cc(-c2ccc(CN3CCOCC3)o2)nc2ccccc12` [Example 72, (R)-5-(2-(dimethylamino)ethoxy)-2-methyl-N-(1-(2-(5-(morpholinomethyl)furan-2-yl)quinolin-4-yl)ethyl)benzamide] as the compound, how does the IC50 read?
**A.** < 500 nM

**Q.** `Cc1ccc(OCCN(C)C)cc1C(=O)N[C@H](C)c1cc(-c2cn[nH]c2)nc2ccccc12` [Example 23, (R)—N-(1-(2-(1H-pyrazol-4-yl)quinolin-4-yl)ethyl)-5-(2-(dimethylamino)ethoxy)-2-methylbenzamide] was tested. Which IC50 did it give?
**A.** < 500 nM
